{"source": "paper PMC10721329", "about": "“Quisinostat is a brain-penetrant radiosensitizer in glioblastoma” (JCI Insight, 2023)", "key": {"[1]": {"assay": "Stability in mouse plasma with esterase inhibitors (BNPP, PMSF, DTNB)", "assay_type": "in vitro ADME", "conditions": "37 C, QST conc 500nM", "protocol": "(§1) Hydroxamic acid–based compounds have been reported to display poor stability and high plasma clearance due to the presence of arylesterases and carboxylesterases in rodent blood ([34]). Therefore, we measured the stability of QST in mouse plasma and brain to determine whether drug degradation occurred during our sample preparations and equilibrium dialyses for the determination of unbound drug level (performed at 37°C). […] QST degradation was also observed in mouse brain homogenate (Figure 6B). However, perfusion of mice before brain collection prevented rapid drug degradation in the brain matrix. […] Degradation of QST can also be constrained if plasma and brain samples are processed at 4°C (Supplemental Figure 4A). All subsequent sample preparations were therefore performed on ice-cold baths to avoid degradation of QST in our PK analyses. […] The observed stability is probably due to the absence of esterases in human matrices, which are responsible for degradation of QST ([34]). Because we employed QST in several in vitro studies (Figures 1–4), the stability of the molecule was also tested in the cell media used to culture GSCs (neurobasal medium; see Methods).\n(§2) Stability Study in Mouse Plasma, Mouse Brain, Human Plasma, Human Brain, and Neural […]\n(§3) The stability of QST was determined in BALB/c mouse plasma, male nude athymic perfused and nonperfused mouse brain homogenate (1:9 w/v of PBS; pH 7.4), human brain (obtained from VRL Eurofins) homogenate (1:4 w/v of PBS; pH 7.4), pooled human plasma (Innovative Research), and neurobasal media. QST stock solutions (1 mM) were prepared in acetonitrile, subsequently diluted in a 40% methanol mixture, and added t o the matrices to make final concentrations of 100 nM or 10 nM. Then 50 or 30 µL of either plasma or brain homogenate containing QST were aliquoted into 1.5-mL microcentrifuge tubes (Eppendorf) and were incubated at either 4 °C or 37 °C for 0, 2, 4, 6, 12, or 24 hours (n = 3 at each time point).\nThe stability of QST in mouse plasma was also tested at 0, 2, 8, 16, or 24 hours (n = 3 at each time point) in the presence of esterase inhibitors: 0.25 mM BNPP, 1mM dithiobis(2-nitrobenzoic acid) (DTNB), or 1.25 mM phenylmethylsulfonyl fluoride (PMSF). Plasma and brain homogenate samples were stored at −80 °C until LC-MS/MS analysis. […]\nSupplemental Figure 4. Stability of QST in mouse plasma is improved upon addition of esterase inhibitors. (A) Stability of QST (100 nM) in mouse plasma and mouse brain homogenate when sample preparation is performed at 4 °C. (B) Stability of QST (500 nM) in mouse plasma spiked with 3 different esterase inhibitors: 0.25 mM bis(p-nitrophenyl) phosphate (BNPP), 1.25 mM phenylmethylsulfonyl fluoride (PMSF), and 1 mM dithiobis(2-nitrobenzoic acid) (DTNB) over the course of 24 hours at 37 °C. (C) Stability of QST (10 nM and 100 nM) in neurobasal cell culture medium over the course of 24 hours at 37 °C."}, "[2]": {"assay": "Stability in neurobasal cell culture medium at 37°C", "assay_type": "in vitro ADME", "conditions": "for %stability: neurobasal cell media, 37C", "protocol": "as §1, §2\nas §3, with “point). […]” for “point).”\nPlasma and brain […]\nhomogenate samples were stored at −80 °C until LC-MS/MS analysis. […]"}}, "note": "Where “and” joins values, the source holds several entries; their conditions need not be identical. Identical values can stand only once.", "data": [{"compound": "Cn1cc(CNCC2CCN(c3ncc(C(=O)NO)cn3)CC2)c2ccccc21", "note": "[QST, quisinostat]", "values": [{"measurement": "%stability", "setting": "[1]; mouse plasma with 0.25mM BNPP, time 0", "result": "107.9% and 91.2% and 100.9%"}, {"measurement": "%stability", "setting": "[1]; mouse plasma with 0.25mM BNPP, time 0, mean", "result": 100.0, "unit": "%"}, {"measurement": "%stability", "setting": "[1]; mouse plasma with 0.25mM BNPP, time 2", "result": "64.6% and 83.0% and 82.7%"}, {"measurement": "%stability", "setting": "[1]; mouse plasma with 0.25mM BNPP, time 2, mean", "result": 76.8, "unit": "%"}, {"measurement": "%stability", "setting": "[1]; mouse plasma with 0.25mM BNPP, time 8", "result": "61.2% and 65.8% and 67.9%"}, {"measurement": "%stability", "setting": "[1]; mouse plasma with 0.25mM BNPP, time 8, mean", "result": 65.0, "unit": "%"}, {"measurement": "%stability", "setting": "[1]; mouse plasma with 0.25mM BNPP, time 16", "result": "53.0% and 52.9% and 53.7%"}, {"measurement": "%stability", "setting": "[1]; mouse plasma with 0.25mM BNPP, time 16, mean", "result": 53.2, "unit": "%"}, {"measurement": "%stability", "setting": "[1]; mouse plasma with 0.25mM BNPP, time 24", "result": "47.9% and 55.7% and 51.9%"}, {"measurement": "%stability", "setting": "[1]; mouse plasma with 0.25mM BNPP, time 24, mean", "result": 51.8, "unit": "%"}, {"measurement": "%stability", "setting": "[1]; mouse plasma with 1mM DTNB, time 0", "result": "107.9% and 91.2% and 100.9%"}, {"measurement": "%stability", "setting": "[1]; mouse plasma with 1mM DTNB, time 0, mean", "result": 100.0, "unit": "%"}, {"measurement": "%stability", "setting": "[1]; mouse plasma with 1mM DTNB, time 2", "result": "20.7% and 19.1% and 20.9%"}, {"measurement": "%stability", "setting": "[1]; mouse plasma with 1mM DTNB, time 2, mean", "result": 20.2, "unit": "%"}, {"measurement": "%stability", "setting": "[1]; mouse plasma with 1mM DTNB, time 8", "result": "0.277% and 0.7%"}, {"measurement": "%stability", "setting": "[1]; mouse plasma with 1mM DTNB, time 8, mean", "result": 0.5, "unit": "%"}, {"measurement": "%stability", "setting": "[1]; mouse plasma with 1mM DTNB, time 16", "result": "0.6% and 0.5%"}, {"measurement": "%stability", "setting": "[1]; mouse plasma with 1mM DTNB, time 16, mean", "result": 0.545, "unit": "%"}, {"measurement": "%stability", "setting": "[1]; mouse plasma with 1mM DTNB, time 24", "result": "0.7% and 0.6% and 0.25%"}, {"measurement": "%stability", "setting": "[1]; mouse plasma with 1mM DTNB, time 24, mean", "result": 0.5, "unit": "%"}, {"measurement": "%stability", "setting": "[1]; mouse plasma with 1.25mM PMFS, time 0", "result": "107.9% and 91.2% and 100.9%"}, {"measurement": "%stability", "setting": "[1]; mouse plasma with 1.25mM PMFS, time 0, mean", "result": 100.0, "unit": "%"}, {"measurement": "%stability", "setting": "[1]; mouse plasma with 1.25mM PMFS, time 2", "result": "61.9% and 64.2% and 59.2%"}, {"measurement": "%stability", "setting": "[1]; mouse plasma with 1.25mM PMFS, time 2, mean", "result": 61.8, "unit": "%"}, {"measurement": "%stability", "setting": "[1]; mouse plasma with 1.25mM PMFS, time 8", "result": "26.3% and 24.6% and 23.5%"}, {"measurement": "%stability", "setting": "[1]; mouse plasma with 1.25mM PMFS, time 8, mean", "result": 24.8, "unit": "%"}, {"measurement": "%stability", "setting": "[1]; mouse plasma with 1.25mM PMFS, time 16", "result": "6.1% and 5.9% and 7.1%"}, {"measurement": "%stability", "setting": "[1]; mouse plasma with 1.25mM PMFS, time 16, mean", "result": 6.4, "unit": "%"}, {"measurement": "%stability", "setting": "[1]; mouse plasma with 1.25mM PMFS, time 24", "result": "4.3% and 3.8%"}, {"measurement": "%stability", "setting": "[1]; mouse plasma with 1.25mM PMFS, time 24, mean", "result": 4.0, "unit": "%"}, {"measurement": "%stability", "setting": "[2]; 10 nM, time 0 hrs (15 minutes used as zero hour time point)", "result": "101.6% and 100.2% and 98.2%"}, {"measurement": "%stability", "setting": "[2]; 10 nM, time 0 hrs (15 minutes used as zero hour time point), mean", "result": 100.0, "unit": "%"}, {"measurement": "%stability", "setting": "[2]; 10 nM, time 2 hrs", "result": "102.7% and 80.7% and 97.1%"}, {"measurement": "%stability", "setting": "[2]; 10 nM, time 2 hrs, mean", "result": 93.5, "unit": "%"}, {"measurement": "%stability", "setting": "[2]; 10 nM, time 5 hrs", "result": "88.0% and 90.7% and 90.1%"}, {"measurement": "%stability", "setting": "[2]; 10 nM, time 5 hrs, mean", "result": 89.6, "unit": "%"}, {"measurement": "%stability", "setting": "[2]; 10 nM, time 24 hrs", "result": "69.7% and 66.1%"}, {"measurement": "%stability", "setting": "[2]; 10 nM, time 24 hrs, mean", "result": 68.5, "unit": "%"}, {"measurement": "%stability", "setting": "[2]; 100 nM, time 0 hrs (15 minutes used as zero hour time point)", "result": "85.1% and 110.5% and 104.4%"}, {"measurement": "%stability", "setting": "[2]; 100 nM, time 0 hrs (15 minutes used as zero hour time point), mean", "result": 100.0, "unit": "%"}, {"measurement": "%stability", "setting": "[2]; 100 nM, time 2 hrs", "result": "109.4% and 82.9% and 110.7%"}, {"measurement": "%stability", "setting": "[2]; 100 nM, time 2 hrs, mean", "result": 101.0, "unit": "%"}, {"measurement": "%stability", "setting": "[2]; 100 nM, time 5 hrs", "result": "95.9% and 77.8% and 80.7%"}, {"measurement": "%stability", "setting": "[2]; 100 nM, time 5 hrs, mean", "result": 84.8, "unit": "%"}, {"measurement": "%stability", "setting": "[2]; 100 nM, time 24 hrs", "result": "73.1% and 67.2% and 68.6%"}, {"measurement": "%stability", "setting": "[2]; 100 nM, time 24 hrs, mean", "result": 69.6, "unit": "%"}, {"measurement": "QST intact in cell media", "setting": "[2]; neurobasal medium, 24-hour incubation, 37°C", "result": "approximately 70%"}]}]}
